According to patent US20240158348A1, “HERBICIDAL CYCLIC AMIDES N-SUBSTITUTED WITH A HALOALKYLSULFONYLANILIDE GROUP” (FMC Corporation, priority 2021, published 2024):

Tests used:
Assay type in all cases: in vivo
[1] = tested on: foxtail, giant (giant foxtail, Setaria faberi); assay: Test A preemergence, giant foxtail; settings: pre-emergence, 240 h, 0 to 100 scale, 10 days, read-out: Plant response rating, Foxtail, Giant
Excerpt: (§1) Seeds of plant species selected from barnyardgrass (Echinochloa crus-galli), blackgrass (Alopecurus myosuroides), corn (Zea mays), foxtail, giant (giant foxtail, Setaria faberi), goosegrass (Eleusine indica), kochia (Bassia scoparia), oat, wild (wild oat, Avena fatua), pigweed, palmer (palmer amaranth, Amaranthus palmeri), pigweed, redroot (redroot pigweed, Amaranthus retroflexus), ragweed (common ragweed, Ambrosia artemisiifolia), ryegrass, Italian (Italian ryegrass, Lolium multiflorum), soybean (Glycine max), and wheat (Triticum aestivum) were planted into a blend of loam soil and sand and treated preemergence with a directed soil spray using test chemicals formulated in a non-phytotoxic solvent mixture which included a surfactant.
(§2) At the same time, plants selected from these crop and weed species and also galium (catchweed bedstraw, Galium aparine) and horseweed (Erigeron canadensis) were planted in pots containing the same blend of loam soil and sand and treated with postemergence applications of test chemicals formulated in the same manner. Plants ranged in height from 2 to 10 cm and were in the one- to two-leaf stage for the postemergence treatment. Treated plants and untreated controls were maintained in a greenhouse for 10 days, after which time all treated plants were compared to untreated controls and visually evaluated for injury. Plant response ratings, summarized in Table A, are based on a 0 to 100 scale where 0 is no effect and 100 is complete control. A dash (-) response means no test result.

[2] = tested on: wheat (Triticum aestivum); assay: Test A postemergence, wheat; settings: post-emergence, 240 h, 0 to 100 scale, 10 days, read-out: Plant response rating, Wheat
Excerpt: as §1, §2

[3] = tested on: ryegrass, Italian (Italian ryegrass, Lolium multiflorum); assay: Test A preemergence, Italian ryegrass; settings: pre-emergence, 240 h, 0 to 100 scale, 10 days, read-out: Plant response rating, Ryegrass, Italian
Excerpt: as §1, §2

[4] = tested on: ducksalad (Heteranthera limosa); assay: Test B flooded paddy test, ducksalad; settings: 250 g ai/ha, Flood, scale of 0 to 100 where 0 is no effect and 100 is complete control, visually evaluated after 10 to 14 days, read-out: Plant response rating, Ducksalad
Experimental: Plant species in the flooded paddy test selected from barnyardgrass (Echinochloa crusgalli), ducksalad (Heteranthera limosa), rice (Oryza sativa), and sedge, umbrella (small-flower umbrella sedge, Cyperus difformis) were grown to the 2-leaf stage for testing. At time of treatment, test pots were flooded to 3 cm above the soil surface, treated by application of test compounds directly to the paddy water, and then maintained at that water depth for the duration of the test. Treated plants and controls were maintained in a greenhouse for 10 to 14 days, after which time all species were compared to controls and visually evaluated. Plant response ratings, summarized in Table B, are based on a scale of 0 to 100 where 0 is no effect and 100 is complete control. A dash (-) response means no test result.

[5] = tested on: blackgrass (Alopecurus myosuroides); assay: Test A preemergence, blackgrass; settings: 0 to 100 scale, 10 days
Excerpt: as §1, §2

[6] = tested on: blackgrass (Alopecurus myosuroides); assay: Test A postemergence, blackgrass; settings: 0 to 100 scale, 10 days
Excerpt: as §1, §2

SMILES: Cc1cc(C)c(N(COC(=O)C(C)(C)C)S(=O)(=O)C(F)(F)F)cc1N1CCC(OC2CCC2)C1=O (centres unmarked) [Compound 8, [[5-[3-(cyclobutyloxy)-2-oxo-1-pyrrolidinyl]-2,4-dimethylphenyl][(trifluoromethyl)sulfonyl]amino]methyl 2,2-dimethylpropanoate]
- pest or weed control at 31 g/ha ([1]; 31 g ai/ha): 90%
- pest or weed control at 125 g/ha ([1]; 125 g ai/ha): 100%
- plant injury at 31 g/ha ([2]; 31 g ai/ha): 60%
- plant injury at 125 g/ha ([2]; 125 g ai/ha): 70%
- pest or weed control at 31 g/ha ([3]; 31 g ai/ha): 50%
- pest or weed control at 125 g/ha ([3]; 125 g ai/ha): 90%
- pest or weed control at 250 g/ha [4]: 95%
- Plant response rating, Blackgrass ([5]; 31 g ai/ha): 30
- Plant response rating, Blackgrass ([5]; 125 g ai/ha): 70
- Plant response rating, Blackgrass ([6]; 31 g ai/ha): 30
- Plant response rating, Blackgrass ([6]; 125 g ai/ha): 40
